Patent US20240218344A1, “LIQUID THROMBIN REAGENT” (Instrumentation Laboratory Company, priority 2022, published 2024)
Counter-ions that a name gives are not always drawn.

Key:
Format in all cases: biochemical
bovine thrombin [1] = biological target: bovine thrombin (Bos taurus, UniProt P00735); assay: Stability of liquid thrombin reagent with alkylated guanidine derivatives, clotting assay; conditions: 25 mM guanidine derivative, approximately 75 U/mL bovine thrombin, MES pH 6.3, stored at 37° C. for 7 or 14 days; FIG. 5
Protocol: (§1) In the clotting assay, the liquid thrombin reagent was diluted with an aqueous buffer to a final thrombin concentration of within 5 to 15 U/mL of thrombin. Then, 20 to 40 microliters (μL) of the diluted liquid thrombin reagent was mixed with 80 μL of a reaction buffer containing 20 mM HEPES, pH 7.4, containing 150 mM NaCl and 0.5% BSA (bovine serum albumin). After an incubation period of 60 to 90 seconds at 37° C., 80 μL of normal pooled plasma was added to the mixture and the time to clot was determined using a threshold algorithm.
The effects of guanidine derivatives were analyzed using a clotting assay. In this experiment, liquid thrombin reagents containing bovine thrombin were diluted to a final concentration of approximately 75 U/mL thrombin with an aqueous buffer comprising a MES buffer containing 20 mM MES, pH 6.3, and 0.1% ProClin™ 300, with and without 25 mM of 1-methylguanidine (MMG), 25 mM of 1.1-dimethylguanidine (DMG) and 25 mM of 1,1-diethylguanidine (DEG).
Liquid thrombin reagents of the type described herein containing guanidine derivatives, and one without a guanidine derivative, were stored at 37° C. for 0, 7, and 14 days and tested using the clotting assay after mixing with normal pooled plasma.

factor Xa = assay: Factor Xa chromogenic assay with guanidine and guanidine derivatives; conditions: dilution series in water, 6 nkat/mL factor Xa, substrate S-2732, 405 nm; FIG. 4
Protocol: In this experiment, the effects of guanidine sulfate and the guanidine derivatives: 1-methylguanidine sulfate, 1,1-dimethylguanidine sulfate, 1,1-diethylguanidine, and N-benzyl, N-methylguanidine sulfate were analyzed using a chromogenic assay. A series of dilutions was prepared in water with guanidine or a guanidine derivative of the type described herein. 40 μL of each of the guanidine or guanidine derivatives were mixed for 20 to 60 seconds with 40 μL of 6 nanokatal per milliliter (nkat/mL) factor Xa diluted in 20 mM HEPES, pH 7.5 buffer. After an incubation period of 150 to 180 seconds, 100 μL of the factor Xa chromogenic substrate S-2732 (1.5 mM) was added to each of the guanidine and factor Xa mixtures and was chromogenically measured at 405 nm milli-absorbance per minute (mAbs/min) after a 20 second delay.

bovine thrombin [2] = assay: Stability of liquid thrombin reagent with apixaban, clotting assay; conditions: 500 ng/ml apixaban, approximately 100 U/mL bovine thrombin, stored at 45° C. for 0-14 days; FIG. 3
Protocol: In the clotting assay, the liquid thrombin reagent was diluted with an aqueous buffer to a final thrombin concentration of within 5 to 15 U/mL of thrombin. Then, 20 to 40 microliters (μL) of the diluted liquid thrombin reagent was mixed with 80 μL of a reaction buffer containing 20 mM HEPES, pH 7.4, containing 150 mM NaCl and 0.5% BSA (bovine serum albumin). After an incubation period of 60 to 90 seconds at 37° C., 80 μL of normal pooled plasma was added to the mixture and the time to clot was determined using a threshold algorithm. In this experiment, the effects of the direct factor Xa inhibitor apixaban was analyzed using a clotting assay. Liquid thrombin reagent containing low purity grade bovine thrombin was diluted to a final concentration of approximately 100 U/mL thrombin in an aqueous buffer containing 20 mM MES, pH 6.1, 100 mM NaCl, 25 mM sodium acetate, 25 mM sodium lactate, 5 mM CaCl2, 0.5% BSA, and 0.4 g/L NaN3. Apixaban was dissolved in dimethyl sulfoxide (DMSO) and diluted to a final concentration of 500 ng/ml apixaban in a sample of the liquid thrombin reagent. Liquid thrombin reagents with and without apixaban were stored at 45° C. for 0, 2, 4, 7, 10 and 14 days, and tested in quadruplicate by the clotting assay after mixture with normal pooled plasma. […]

thrombin [3] = assay: Thrombin concentrations for liquid thrombin reagent stability, clotting assay; conditions: 30 mM DMG, 37° C. for 7 days, FIG. 7
Protocol: as §1
The effect of guanidine derivatives on a series of thrombin concentrations were analyzed using a clotting assay. A series of liquid thrombin reagents containing 30 mM DMG were prepared by diluting a 100 U/mL thrombin liquid thrombin reagent in MES buffer (containing 30 mM DMG, 20 mM MES, pH 6.3, and 0.1% ProClin™ 300) with MES buffer to final concentrations of 70, 56, 42, 28, 14 or 7 U/mL thrombin. The liquid thrombin reagents were stored at 37° C. for 7 days and tested for thrombin activity using the clotting assay.

thrombin [4] = assay: Alkylated guanidine concentrations for thrombin stability, clotting assay; conditions: less than 20 mM DMG, 7 U/mL thrombin, 37° C. for 20 days versus 2 to 8° C.; FIG. 6
Protocol: as §1
A series of liquid thrombin reagents containing dimethylguanidine (DMG) were analyzed using a clotting assay. A series of liquid thrombin reagents containing 7 U/mL liquid thrombin were prepared in an aqueous buffer containing 20 mM MES, pH 6.3, 0.1% ProClin™ 300, and a final concentration of 5, 10, 15, 20, 25, or 30 mM DMG. The resulting liquid thrombin reagents were stored at 37° C for 20 days, and the remaining thrombin activity was compared to the liquid thrombin reagent containing the same concentration of guanidine derivative stored at 2 to 8° C. for 20 days.

Compound | thrombin activity after storage (bovine thrombin [1]) | factor Xa inhibition (factor Xa) | further results
CNC(=N)N.O=S(=O)(O)O [1,1 methylguanidine sulfate, 1-methylguanidine sulfate] | little or no decrease in thrombin activity | – | –
CN(Cc1ccccc1)C(=N)N.O=S(=O)(O)O [N-benzyl N-methylguanidine sulfate, N-benzyl, N-methylguanidine sulfate] | – | reduced factor Xa inhibition | –
COc1ccc(-n2nc(C(N)=O)c3c2C(=O)N(c2ccc(N4CCCCC4=O)cc2)CC3)cc1 [apixaban] | – | – | stability of the liquid thrombin reagent (time-to-clot versus reagent without apixaban) (bovine thrombin [2]): improves the stability of the liquid thrombin reagent in the long term
CCN(CC)C(=N)N [diethylguanidine sulfate, 1,1-diethylguanidine] | little or no decrease in thrombin activity | largest extent of factor Xa inhibition | –
CN(C)C(=N)N.O=S(=O)(O)O [dimethylguanidine sulfate, 1,1-dimethylguanidine sulfate] | little or no decrease in thrombin activity | largest extent of factor Xa inhibition | remaining thrombin activity (thrombin [3]; less than about 20 U/mL thrombin): declined; remaining thrombin activity (thrombin [3]; more than about 20 U/mL thrombin): did not decline significantly; remaining thrombin activity (thrombin [4]): declined
N=C(N)N.N=C(N)N.O=S(=O)(O)O [guanidine sulfate, reference compound] | – | least reduction in factor Xa inhibition | –
